Our source for the MIC values is US20130165368A1, “ANTIMICROBIAL COMPOUNDS” (priority 2010, published 2013).

Converted amounts (≈) assume the structure as drawn. Like-named read-outs stand apart in the source and are kept apart here.

Common to all, as to format: cell-based
The subject of one assay is Escherichia coli. Nature of the assay: MIC agar dilution, micro-organism 1 (10418). Particulars: Escherichia coli 10418. As for the experimental part:
(§1) Throughout the period of testing the microbial strains were subcultured and incubated for 18-20 hours at 37° C. on a weekly basis. Horse blood agar plates were used to sustain the micro-organisms both prior to and throughout testing. The alkoxylated alkanols listed in Table II below were obtained (these are obtainable from Sigma-Aldrich Company Ltd, Dorset, England), each having a GC purity of at least 97%.
(§2) Molar equivalent concentrations were used to allow comparison between compounds of differing molecular mass. Due to weighing difficulties, any compound in solid form was melted in a water bath prior to dilution. To make ten-times strength concentrations, which takes into account agar dilution, 0.0352 mmol of each compound was weighed into plastic universal bottles and 4 mL of sterile distilled water (SDW) was added. To produce a homogenous emulsion the universals were vortexed; once achieved the emulsions were serial diluted by adding 2 mL to 2 mL of SDW.
(§3) Myristyl alcohol and lauryl alcohol were re-weighed and dissolved in 25 μL of the polar solvent 1-methyl-2-pyrrolidone (M6762; Sigma-Aldrich) in sterile glass universals due to an inability to achieve an even suspension. To maintain an even emulsion in the presence of SDW 37.5 μL of the non-ionic detergent Tween 20 (P1379, Sigma-Aldrich) was also added. 3.9375 mL of SDW was added to these, to create a 4 mL volume; they were vortexed and diluted as before.
(§4) For every 100 mL of Isosensitest agar (IST) (CM0471; Oxoid, Basingstoke, England), 3.1 g of the IST powder was added to 100 mL SDW (as per manufacturer's instructions) and sterilised for 15 minutes at 121° C. Once sterilised, the molten agar was cooled to 50° C. in a water-bath. Subsequently 4.8 g of CCEY powder (BC2160; Bioconnections, Wetherby, England), also known as Brazier's medium, was added to 100 mL SDW for every 100 mL of agar needed. This was then sterilised for 15 minutes at 121° C. Once sterilised the molten agar was cooled to 50° C. in a water-bath and 4 mL of egg-yolk emulsion (S2073; TCS Biosciences Ltd, Buckingham, United Kingdom) and 1 mL of lysed defibrinated horse blood (HB035; TCS Biosciences Ltd, Buckingham, United Kingdom) were also added for every 100 mL needed. Horse blood lysis is achieved by dilution to half concentration with SDW; when fully lysed the mixture will turn dark red in colour.
(§5) 18 mL agar was added to each universal and then poured into sterile Petri dishes. This step creates a 1/10 dilution resulting in agar plates of the required strength. Control plates for each set of strains were created by adding 18 mL of agar to 2 mL of SDW.
(§6) Suspensions of each bacterial species were prepared with a density equal to that of a 0.5 McFarland standard using a densitometer. All suspensions were made using sterile distilled water and fresh 18-20 hour cultures. As a 0.5 McFarland standard contains 1.5×10^8 CFU/mL and the multipoint inoculators applies 1 μL spots of liquid, each bacterial suspension was diluted 1/15 (20 μL suspension to 280 μL sterile distilled water).
(§7) Bacterial suspensions were prepared from fresh 18-24 hour cultures as previously described. 1 μL of each strain was inoculated onto all 100 agar plates containing a different chemical concentration and the 2 control plates. This was done using a multipoint inoculator which inoculates 20 strains per plate. All plates were incubated for 22 hours at 37° C. in aerobic conditions.
(§8) Each plate was examined for bacterial growth after 22 and 48 hours, with each being incubated in between examinations. A positive result was recorded as growth of ≧10 colonies. A negative result was recorded as growth of <10 colonies as this is equivalent to 99.9% inhibition. The lowest concentration of chemical that inhibited growth was recorded as the MIC. The results are recorded in Table IV below, where the numbers are quoted in mmol/L. […]
(In agar dilution the substance is mixed into plates at graded concentrations.)

A further assay deals with Providencia rettgeri. Nature of the assay: MIC agar dilution, micro-organism 3 (7475). Conditions: Providencia rettgeri 7475. As for the experimental part:
as §1, §2, §3, §4, §5, §6, §7, §8

For another assay, the system named is Steptococcus pyogenes. Briefly: MIC agar dilution, micro-organism 11 (8306). Particulars: Steptococcus pyogenes 8306. As for the experimental part: as §1, §2, §3, §4, §5, §6, §7, §8
Assay [1] deals with Staphylococcus aureus (MRSA). Nature of the assay: MIC agar dilution, micro-organism 12 (11939). Conditions: Staphylococcus aureus (MRSA) 11939. As for the experimental part: as §1, §2, §3, §4, §5, §6, §7, §8
The next assay concerns Staphylococcus aureus. Briefly: MIC agar dilution, micro-organism 13 (6571). Conditions: Staphylococcus aureus 6571. As for the experimental part:
as §1, §2, §3, §4, §5, §6, §7, §8

In assay [2] the test system is Staphylococcus epidermidis. Briefly: MIC agar dilution, micro-organism 14 (11047). Particulars: Staphylococcus epidermidis 11047. As for the experimental part:
as §1, §2, §3, §4, §5, §6, §7, §8

Another assay relates to Listeria monocytogenes. Nature of the assay: MIC agar dilution, micro-organism 15 (11994). Particulars: Listeria monocytogenes 11994. As for the experimental part:
as §1, §2, §3, §4, §5, §6, §7, §8

Another assay has as its system Enterococcus faecium. Nature of the assay: MIC agar dilution, micro-organism 16 (7171). Particulars: Enterococcus faecium 7171. Here is the method: as §1, §2, §3, §4, §5, §6, §7, §8
A further assay concerns Enterococcus faecalis. Nature of the assay: MIC agar dilution, micro-organism 17 (775). Conditions: Enterococcus faecalis 775. As for the experimental part:
as §1, §2, §3, §4, §5, §6, §7, §8

For a further assay, the system named is Bacillus subtilis. Nature of the assay: MIC agar dilution, micro-organism 18 (9372). Conditions: Bacillus subtilis 9372. Here is the method:
as §1, §2, §3, §4, §5, §6, §7, §8

Another assay deals with Candida albicans. Nature of the assay: MIC agar dilution, micro-organism 19 (90028). Conditions: Candida albicans 90028. As for the experimental part: as §1, §2, §3, §4, §5, §6, §7, §8
A further assay concerns Candida glabrata. Briefly: MIC agar dilution, micro-organism 20 (3943). Conditions: Candida glabrata 3943. As for the experimental part: as §1, §2, §3, §4, §5, §6, §7, §8
The mark [3] stands for this setting: Staphylococcus aureus, MRSA, 22 h, 22 hrs, read-out: MIC.
Where [4] appears, read: Staphylococcus aureus, MRSA, 48 h, 48 hrs, read-out: MIC.
[5] abbreviates: Staphylococcus aureus, 22 h, 22 hrs, read-out: MIC.
[6] abbreviates: Staphylococcus aureus, 48 h, 48 hrs, read-out: MIC.
Where [7] appears, read: Nakaseomyces glabratus, 22 h, 22 hrs, read-out: MIC.
[8] abbreviates: Nakaseomyces glabratus, 48 h, 48 hrs, read-out: MIC.

Consider `CCCCCCCCCCCCCCCCOCCOCCO` [C2], for which the MIC (usually the least concentration at which growth counts as inhibited) was >880 µM in the assay on Escherichia coli (22 hrs); >880 µM against Escherichia coli (48 hrs); >880 µM against Providencia rettgeri (22 hrs); >880 µM against Providencia rettgeri (48 hrs); 880 µM (≈ 291 µg/mL) in the assay on Steptococcus pyogenes (22 hrs); >880 µM against Steptococcus pyogenes (48 hrs). The MIC (in [1] (22 hrs); in assay [1] (48 hrs); in the assay with Staphylococcus aureus (22 hrs); in the assay with Staphylococcus aureus (48 hrs); in assay [2] (22 hrs); in [2] (48 hrs)) was >880 µM in each case. The MIC in the assay with Listeria monocytogenes (22 hrs), against Listeria monocytogenes (48 hrs), in the assay on Enterococcus faecium (22 hrs), with Enterococcus faecium (48 hrs), in the assay on Enterococcus faecalis (22 hrs) and in the assay with Enterococcus faecalis (48 hrs) was >880 µM in each case. The MIC with Bacillus subtilis (22 hrs) was >880 µM; in the assay with Bacillus subtilis (48 hrs) it was >880 µM; against Candida albicans (22 hrs), >880 µM; in the assay with Candida albicans (48 hrs) it was >880 µM; with Candida glabrata (22 hrs), 880 µM (≈ 291 µg/mL); in the assay with Candida glabrata (48 hrs) it was >880 µM.
`CCCCCCCCCCCCO` [L0, 1-Dodecanol, reference compound]: the MIC is > 880 µM in the assay on Escherichia coli (22 hrs, read-out: MIC); > 880 µM with Escherichia coli (48 hrs, read-out: MIC); > 880 µM in the assay on Providencia rettgeri (22 hrs, read-out: MIC); > 880 µM in the assay with Providencia rettgeri (48 hrs, read-out: MIC); 440 µM (≈ 82 µg/mL) with Steptococcus pyogenes (22 h, 22 hrs, read-out: MIC); ≥ 880 µM in the assay on Steptococcus pyogenes (48 h, 48 hrs, read-out: MIC). Besides, the minimum inhibitory concentration (MIC) was 440 µM (≈ 82 µg/mL) in [1] (setting [3]); ≥ 880 µM in assay [1] (setting [4]); 440 µM (≈ 82 µg/mL) with Staphylococcus aureus (setting [5]); ≥ 880 µM in the assay on Staphylococcus aureus (setting [6]); > 880 µM in assay [2] (22 hrs, read-out: MIC); > 880 µM in assay [2] (48 hrs, read-out: MIC). Further, the MIC with Listeria monocytogenes (22 hrs, read-out: MIC) is > 880 µM; with Listeria monocytogenes (48 hrs, read-out: MIC), > 880 µM; with Enterococcus faecium (22 hrs, read-out: MIC), > 880 µM; with Enterococcus faecium (48 hrs, read-out: MIC), > 880 µM; with Enterococcus faecalis (22 hrs, read-out: MIC), > 880 µM; in the assay on Enterococcus faecalis (48 hrs, read-out: MIC) it was > 880 µM. Moreover, the MIC in the assay with Bacillus subtilis (22 hrs, read-out: MIC) is > 880 µM; in the assay with Bacillus subtilis (48 hrs, read-out: MIC) it was > 880 µM; in the assay with Candida albicans (22 hrs, read-out: MIC), > 880 µM; with Candida albicans (48 hrs, read-out: MIC), > 880 µM; with Candida glabrata (setting [7]) it was 440 µM (≈ 82 µg/mL); with Candida glabrata (setting [8]), ≥ 880 µM.
Regarding `CCCCCCCCCCCCCCOCCOCCOCCOCCOCCOCCOCCOCCO` [M8, Octaethylene Glycol Monotetradecyl Ether], the MIC was > 880 µM with Escherichia coli (22 hrs, read-out: MIC); > 880 µM with Escherichia coli (48 hrs, read-out: MIC); > 880 µM in the assay with Providencia rettgeri (22 hrs, read-out: MIC); > 880 µM in the assay on Providencia rettgeri (48 hrs, read-out: MIC); 550 µM (≈ 312 µg/mL) in the assay with Steptococcus pyogenes (22 h, 22 hrs, read-out: MIC); 55 µM (≈ 31.2 µg/mL) in the assay on Steptococcus pyogenes (48 h, 48 hrs, read-out: MIC). Besides, the MIC in assay [1] (setting [3]) was found to be 440 µM (≈ 249 µg/mL); in assay [1] (setting [4]), 440 µM (≈ 249 µg/mL); in the assay on Staphylococcus aureus (setting [5]), 110 µM (≈ 62.3 µg/mL); in the assay on Staphylococcus aureus (setting [6]), 110 µM (≈ 62.3 µg/mL); in [2] (22 hrs, read-out: MIC) it was 220 µM (≈ 125 µg/mL); in assay [2] (48 hrs, read-out: MIC) it was 220 µM (≈ 125 µg/mL). The MIC with Listeria monocytogenes (22 hrs, read-out: MIC) was > 880 µM; in the assay with Listeria monocytogenes (48 hrs, read-out: MIC), > 880 µM; with Enterococcus faecium (22 hrs, read-out: MIC), > 880 µM; in the assay on Enterococcus faecium (48 hrs, read-out: MIC) it was > 880 µM; with Enterococcus faecalis (22 hrs, read-out: MIC) it was 55 µM (≈ 31.2 µg/mL); with Enterococcus faecalis (48 hrs, read-out: MIC), 55 µM (≈ 31.2 µg/mL). Further, the MIC is 110 µM (≈ 62.3 µg/mL) in the assay with Bacillus subtilis (22 hrs, read-out: MIC); 110 µM (≈ 62.3 µg/mL) in the assay with Bacillus subtilis (48 hrs, read-out: MIC); > 880 µM in the assay with Candida albicans (22 hrs, read-out: MIC); > 880 µM with Candida albicans (48 hrs, read-out: MIC); > 880 µM in the assay with Candida glabrata (setting [7]); > 880 µM in the assay on Candida glabrata (setting [8]).
